In ChEMBL document CHEMBL6103582, “Computer-aided discovery of novel AMPK activators through virtual screening and SAR-driven synthesis” (Eur J Med Chem, 2025) one finds fold change (FC) and Activity data, which are given here for 39 compounds.

The test system of data set [1] is N2a-APPswe. Briefly: Activation of AMPK in mouse N2a-APPswe cells assessed as increase in phosphorylation by measuring pACC/ACC ratio at 10 uM measured after 24 hrs by Western blot analysis. In kind it is cell-based. The following applies: filed as activator. (Immunoblotting shows a protein as a band on a membrane.)
Data set [2] relates to N2a-APPswe. Kind of data set: Activation of AMPK in mouse N2a APPswe cells assessed as increase in phosphorylation by measuring pAMPK/AMPK ratio at 10 uM measured after 24 hrs by Western blot analysis. The data set is classed as cell-based. The conditions noted are these: filed as activator.
The nature of data set [3]: Cytotoxicity against mouse N2a-APPswe cells assessed as cell viability at 5 uM measured after 24 hrs by WST-1 assay. The data set is classed as toxicity, cell-based.
The test system of a further data set is AMPK. Briefly: Activation of AMPK gamma (unknown origin) assessed as increase in phosphorylation of SAMS peptide by measuring fold change at 10 uM measured after 30 mins by ADP-Glo assay. The following applies: Homo sapiens, filed as activator. (In general: ADP-Glo first removes unused ATP, then detects ADP through luciferase.)
Data set [4] concerns N2a-APPswe. Briefly: Activation of AMPK in mouse N2a-APPswe cells assessed as increase in phosphorylation by measuring pAMPK/AMPK ratio at 5 uM measured after 24 hrs by Western blot analysis. In kind it is cell-based. The following applies: filed as activator.
Data set [5] relates to N2a-APPswe. Kind of data set: Activation of AMPK in mouse N2a-APPswe cells assessed as increase in phosphorylated AMPK at Thr172 at 10 uM measured after 3 hrs by Western blot analysis. In kind it is cell-based. The conditions noted are these: filed as activator.
The test system of data set [6] is N2a-APPswe. Kind of data set: Activation of AMPK in mouse N2a-APPswe cells assessed as increase in phosphorylated Raptor at Ser792 at 10 uM measured after 3 hrs by Western blot analysis. In kind it is cell-based. The conditions noted are these: filed as activator.
Data set [7] deals with N2a-APPswe. Kind of data set: Activation of AMPK in mouse N2a-APPswe cells assessed as increase in phosphorylated ACC at Ser79 at 10 uM measured after 3 hrs by Western blot analysis. In kind it is cell-based. The conditions noted are these: filed as activator.

Molecules are shown by their SMILES. Active and inactive are the calls of the source. The rule behind the calls is not given here. Bounds are passed on as bounds.

With `CCOC(=O)c1nn(CCCc2ccccc2)c2c1CN(C(=O)Cn1nc3ccccc3n1)CC2`, the fold change (FC) with N2a-APPswe [1] and in the data set with N2a-APPswe [2] was above 1 throughout.

As for `NC(=O)c1ncn([C@@H]2O[C@H](CO)[C@@H](O)[C@H]2O)c1N`, the fold change (FC) in the data set on N2a-APPswe [1] and with N2a-APPswe [2] was above 1 throughout. In the case of `O=C(CCn1cnnn1)N1CCCC(N2CCN(c3cccc(C(F)(F)F)c3)CC2)C1` (centres undefined), the fold change (FC) in the data set with N2a-APPswe [1] and with N2a-APPswe [2] was above 1 each time. As for `Cc1ccc(C)c(Oc2coc3cc(OCC(=O)OCC(C)C)ccc3c2=O)c1`, in the data set on N2a-APPswe [2], the fold change (FC) is above 1.

Turning to `Nc1cccc(C(=O)/C=C/c2ccc(N3CCCCC3)cc2)c1`, the Activity entry in data set [3] is “Non-toxic”. In addition, the results for the fold change (FC) with AMPK and with N2a-APPswe [4] were 2.05 and above 1, respectively.

Turning to `O=C(/C=C/c1ccc(N2CCCCC2)cc1)c1ccc(O)cc1`, in data set [3], the Activity result is reported as “Non-toxic”. The fold change (FC) with AMPK is 2.96; in the data set on N2a-APPswe [4], above 1. With `Cc1ccc(C)c(Oc2coc3cc(OC(=O)c4ccc(-c5ccccc5)cc4)ccc3c2=O)c1`, the fold change (FC) with N2a-APPswe [2] is above 1.

Consider `Cc1ccc(NCc2ccc(C(=O)N3CCC(C(=O)O)CC3)cc2)cc1`, for which the fold change (FC) in the data set on N2a-APPswe [1] and in the data set on N2a-APPswe [2] was above 1 throughout. As for `COc1cc(O)ccc1/C=C/C(=O)c1ccc(N2CCNCC2)cc1`, the fold change (FC) in the data set with AMPK was determined as 1.51. For `COc1ccc(OC)c(/C=C/C(=O)c2cccc(NS(=O)(=O)c3ccc(Cl)cc3)c2)c1`, in the data set with AMPK, the fold change (FC) is 1.94. For the compound `Cc1ccc(C)c(Oc2coc3cc(OCc4ccc(F)cc4)ccc3c2=O)c1`, in the data set with N2a-APPswe [2], the fold change (FC) is above 1. On to `Cc1ccccc1-c1noc(CCC(=O)NC(C)c2ccccc2-n2cccn2)n1` (centres undefined), for which the fold change (FC) in the data set with N2a-APPswe [1] and with N2a-APPswe [2] was above 1 in each case. For `COc1ccc(OC)c(/C=C/C(=O)c2cccc(N)c2)c1`, the Activity result in data set [3] is recorded as “Non-toxic”. The fold change (FC) was 2.62 in the data set with AMPK and above 1 with N2a-APPswe [4]. Regarding `CCOCCOC(=O)COc1ccc2c(=O)c(Oc3cc(C)ccc3C)coc2c1`, the fold change (FC) in the data set with N2a-APPswe [2] is above 1. As to `Cn1ccnc1CNC(=O)CCc1nnc(-c2ccc(-c3ccccc3)cc2)o1`, the fold change (FC) with N2a-APPswe [1] and in the data set on N2a-APPswe [2] was above 1 each time.

As for `COc1ccc(/C=C/C(=O)c2cccc(NS(=O)(=O)c3ccc(Cl)cc3)c2)cc1`, the fold change (FC) in the data set on AMPK came to 1.82. On to `CCOC(=O)N1CCN(C(=O)c2ccc(N3CCC(NCCn4nc(C)cc4C)CC3)cc2)CC1`, for which the fold change (FC) in the data set on N2a-APPswe [1] and in the data set with N2a-APPswe [2] was above 1 each time. With `Cc1ccc(C)c(Oc2coc3cc(OC(=O)c4cccc(Br)c4)ccc3c2=O)c1`, the fold change (FC) in the data set with N2a-APPswe [1] and in the data set with N2a-APPswe [2] was above 1 each time. With `O=C(/C=C/c1ccc(N2CCCCC2)cc1)c1ccc(O)cc1O`, the Activity result in data set [3] was “Non-toxic”. The fold change (FC) with AMPK was 2.48; in the data set with N2a-APPswe [4], above 1.

As to `Cc1ccc(C)c(Oc2coc3cc(OCC(=O)OC4CCCCC4)ccc3c2=O)c1`, the fold change (FC) in the data set on N2a-APPswe [2] is above 1. For `O=C(O)C1CCCN(C(=O)Cn2nc(-c3ccc4ccccc4c3)ccc2=O)C1` (centres undefined), the fold change (FC) in the data set on N2a-APPswe [1] and in the data set on N2a-APPswe [2] was above 1 throughout. For the compound `CN1[C@@H](c2ccccc2)[C@@H](C(=O)NCCn2ccnc2)C[C@@]1(C)C(=O)O`, the fold change (FC) in the data set on N2a-APPswe [1] and in the data set with N2a-APPswe [2] was above 1 in each case. `Cc1cc(-c2cc3c(n(Cc4cccnc4)c2=O)CCN(C(=O)c2ccc4c(c2)OCO4)C3)ccc1F`: the fold change (FC) in the data set on N2a-APPswe [1] and in the data set with N2a-APPswe [2] was above 1 throughout.

Regarding `COc1ccc(OC)c(C(=O)c2ccc(C(=O)N3CCc4c(cnc(C)c4CNC(C)=O)C3)cc2)c1`, the fold change (FC) with N2a-APPswe [1] and with N2a-APPswe [2] was above 1 throughout.

As to `COc1ccc(OC)c(/C=C/C(=O)c2ccc(NS(=O)(=O)c3ccc(Cl)cc3)cc2)c1`, the result in the data set with N2a-APPswe [5], with N2a-APPswe [6] and in the data set with N2a-APPswe [7] was Active. Besides, the Activity result in data set [3] is reported as “Non-toxic”. For the same compound, the fold change (FC) with AMPK is 2.45; in the data set on N2a-APPswe [4], above 1. On to `COc1ccc(OC)c(/C=C/C(=O)c2ccc(N)cc2)c1`, for which, in the data set with AMPK, the fold change (FC) is 1.93.

As for `CN1CCN(c2ccc(C(=O)/C=C/c3ccc(O)cc3)cc2)CC1`, the fold change (FC) in the data set with AMPK turned out to be 1.52. For the compound `COc1ccc(/C=C/C(=O)c2ccc(N)cc2)c(OC)c1`, in data set [3], the Activity result is recorded as “Non-toxic”.

Take `Cc1ccc(CCC(=O)Nc2ccc3c(c2)CN(C(=O)CCn2cnnn2)CC3)cc1`: the fold change (FC) in the data set on N2a-APPswe [1] and with N2a-APPswe [2] was above 1 in each case. Turning to `Cc1cc(C)c(C)c(Oc2coc3cc(OC(=O)C(C)N4C(=O)c5ccccc5C4=O)ccc3c2=O)c1` (centres undefined), in the data set on N2a-APPswe [2], the fold change (FC) is above 1.

On to `Cc1ccc(C)c(Oc2coc3cc(OCCc4ccccc4)ccc3c2=O)c1`, for which the fold change (FC) with N2a-APPswe [2] was above 1. Consider `Nc1ccc(C(=O)/C=C/c2ccc(N3CCCCC3)cc2)cc1`, for which, in data set [3], the Activity result is on record as “Non-toxic”. Further, the fold change (FC) is 2.16 in the data set with AMPK and above 1 with N2a-APPswe [4]. For the compound `COc1ccc2c(=O)c(Oc3cc(C)ccc3C)coc2c1`, in the data set on N2a-APPswe [2], the fold change (FC) is above 1. As for `COc1ccc(/C=C/C(=O)c2cccc(N)c2)cc1`, in data set [3], the Activity result was “Non-toxic”. For the same compound, the fold change (FC) was 2.3 with AMPK and above 1 with N2a-APPswe [4].

With `Cc1ccc(C)c(Oc2coc3cc(OCc4ccc(Cl)cc4Cl)ccc3c2=O)c1`, the fold change (FC) in the data set on N2a-APPswe [2] was above 1. Regarding `COCCN1C(=O)N(Cc2cccnc2)C(=O)C12CCN(Cc1nc(-c3ccccc3)cs1)CC2`, the fold change (FC) in the data set on N2a-APPswe [1] is below 1; with N2a-APPswe [2] it was above 1. As to `N#CC1C(=O)Nc2scc(-c3ccc(-c4ccccc4O)cc3)c2C1=O` (centres undefined), the fold change (FC) in the data set on N2a-APPswe [1], in the data set with N2a-APPswe [2] and in the data set with N2a-APPswe [4] was above 1 throughout. Consider `COc1cc(O)ccc1/C=C/C(=O)c1cccc(N)c1`, for which the fold change (FC) with AMPK came to 1.73. `COc1ccc(OC)c(/C=C/C(=O)c2cccc(N(S(=O)(=O)c3ccc(Cl)cc3)S(=O)(=O)c3ccc(Cl)cc3)c2)c1`: the Activity entry in data set [3] is “Non-toxic”. In addition, the fold change (FC) in the data set with AMPK was 2.53; in the data set with N2a-APPswe [4], above 1.
